Laboratory results reported in ChEMBL document CHEMBL1144048, “Facile preparation of new 4-phenylamino-3-quinolinecarbonitrile Src kinase inhibitors via 7-fluoro intermediates: identification of potent 7-amino analogs” (Bioorg Med Chem, 2008).
In brackets after ≈: the same amount, converted by molar mass.

Experiments:
[1] = Inhibition of human cSrc-vSrc fusion protein expressed in rat fibroblast cells by ELISA; assay type: cell-based
[2] = biological target: CYP2D6 (Homo sapiens, UniProt P10635); assay: Inhibition of CYP2D6 at 3 uM; assay type: ADME
CYP2D6, sequence (P10635 whole entry): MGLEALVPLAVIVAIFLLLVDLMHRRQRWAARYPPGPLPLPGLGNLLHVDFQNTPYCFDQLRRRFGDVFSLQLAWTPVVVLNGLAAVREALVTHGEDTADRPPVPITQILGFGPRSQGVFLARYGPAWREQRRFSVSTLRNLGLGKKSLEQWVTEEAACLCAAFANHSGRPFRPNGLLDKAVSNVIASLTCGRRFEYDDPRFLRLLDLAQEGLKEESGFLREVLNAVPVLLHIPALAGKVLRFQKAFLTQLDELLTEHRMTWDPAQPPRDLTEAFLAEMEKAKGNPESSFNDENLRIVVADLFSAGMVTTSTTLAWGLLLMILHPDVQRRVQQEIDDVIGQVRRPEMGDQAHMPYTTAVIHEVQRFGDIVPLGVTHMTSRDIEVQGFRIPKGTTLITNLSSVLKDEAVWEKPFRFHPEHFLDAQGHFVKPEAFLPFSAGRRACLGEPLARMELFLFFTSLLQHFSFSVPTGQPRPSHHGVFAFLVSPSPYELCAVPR

[3] = Drug level in nude mouse plasma at 50 mg/kg, po after 24 hrs; assay type: ADME, organism-based; set-up: dose 50 mg/kg, route oral
[4] = biological target: CYP3A4 (Homo sapiens, UniProt P08684); assay: Inhibition of CYP3A4 at 3 uM; assay type: ADME
CYP3A4, sequence (P08684 whole entry): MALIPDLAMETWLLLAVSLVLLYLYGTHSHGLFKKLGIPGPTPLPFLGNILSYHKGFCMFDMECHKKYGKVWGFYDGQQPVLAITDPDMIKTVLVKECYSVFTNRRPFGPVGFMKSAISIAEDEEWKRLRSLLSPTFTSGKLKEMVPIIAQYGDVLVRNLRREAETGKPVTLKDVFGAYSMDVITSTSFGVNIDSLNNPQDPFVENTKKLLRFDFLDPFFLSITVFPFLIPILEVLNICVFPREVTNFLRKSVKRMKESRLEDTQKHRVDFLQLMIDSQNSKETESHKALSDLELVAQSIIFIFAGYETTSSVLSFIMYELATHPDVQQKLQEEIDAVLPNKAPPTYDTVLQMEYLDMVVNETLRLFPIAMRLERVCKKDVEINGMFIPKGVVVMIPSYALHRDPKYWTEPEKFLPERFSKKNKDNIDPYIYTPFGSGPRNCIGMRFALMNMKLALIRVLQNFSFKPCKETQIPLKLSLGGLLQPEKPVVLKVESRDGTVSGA

[5] = system: HT-29; assay: Inhibition of tumor growth in human HT29 cells xenografted nude mouse at 150 mg/kg, po OD after 14 days relative to control; assay type: functional; conditions: HT-29, 336 h
[6] = Stability in mouse plasma after 300 mins; assay type: ADME, cell-free; conditions: read-out: Stability
[7] = biological target: CYP2C9 (Homo sapiens, UniProt P11712); assay: Inhibition of CYP2C9 at 3 uM; assay type: ADME
CYP2C9, sequence (P11712 whole entry): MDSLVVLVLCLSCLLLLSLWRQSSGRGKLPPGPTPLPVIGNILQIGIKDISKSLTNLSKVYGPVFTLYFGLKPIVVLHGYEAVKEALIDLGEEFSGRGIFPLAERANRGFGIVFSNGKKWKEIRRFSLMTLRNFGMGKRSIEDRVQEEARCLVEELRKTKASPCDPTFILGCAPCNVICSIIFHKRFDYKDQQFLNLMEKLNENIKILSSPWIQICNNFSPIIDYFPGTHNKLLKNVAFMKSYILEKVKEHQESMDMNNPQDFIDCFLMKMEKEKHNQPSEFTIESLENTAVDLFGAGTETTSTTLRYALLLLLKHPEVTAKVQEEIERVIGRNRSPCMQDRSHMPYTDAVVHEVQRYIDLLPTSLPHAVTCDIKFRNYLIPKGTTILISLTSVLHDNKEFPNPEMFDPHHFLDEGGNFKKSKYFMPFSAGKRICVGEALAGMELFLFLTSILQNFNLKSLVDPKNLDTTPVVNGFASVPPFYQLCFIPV

[8] = Drug level in nude mouse plasma at 50 mg/kg, po after 4 hrs; assay type: ADME, organism-based; set-up: dose 50 mg/kg, route oral
[9] = Solubility at pH 7.4; assay type: physicochemical; conditions: buffer
[10] = Permeability across artificial membrane by PAMPA; assay type: ADME; conditions: read-out: permeability
[11] = Drug level in nude mouse plasma at 50 mg/kg, po after 8 hrs; assay type: ADME, organism-based; set-up: dose 50 mg/kg, route oral

COc1cc(Nc2c(C#N)cnc3cc(N(C)CCCN(C)C)c(OC)cc23)c(Cl)cc1Cl
IC50 [1]: 2700 nM

COCCOc1ccc2c(Nc3cc(OC)c(Cl)cc3Cl)c(C#N)cnc2c1
IC50 [1]: 1600 nM

CCOc1cc2c(Nc3cc(OC)c(Cl)cc3Cl)c(C#N)cnc2cc1OCCCN1CCN(C)CC1
IC50 [1]: 85 nM

COc1cc(Nc2c(C#N)cnc3cc(NCCCN(C)C)c(OC)cc23)c(Cl)cc1Cl
inhibition at 3 µM [2]: < 34% | concentration at 24 h [3]: 80 ng/mL | inhibition at 3 µM [4]: < 34% | IC50 [1]: 300 nM | inhibition in vivo at 150 mg/kg [5]: 75% | remaining at 5 h [6]: > 70% | inhibition at 3 µM [7]: < 34% | concentration at 4 h [8]: 610 ng/mL | solubility [9]: > 100 µg/mL | Papp [10]: 7.3 ×10⁻⁶ cm/s | concentration at 8 h [11]: 410 ng/mL

COc1cc(Nc2c(C#N)cnc3cc(OCCCN4CCN(C)CC4)c(OC)cc23)c(Cl)cc1Cl [BOSUTINIB]
concentration at 24 h [3]: 47 ng/mL | IC50 [1]: 100 nM | inhibition in vivo at 150 mg/kg [5]: 50% | concentration at 4 h [8]: 1060 ng/mL

COCCOc1ccc2c(Nc3ccc(Cl)cc3Cl)c(C#N)cnc2c1
IC50 [1]: > 10000 nM

COc1cc(Nc2c(C#N)cnc3cc(NCCCN4CCOCC4)c(OC)cc23)c(Cl)cc1Cl
IC50 [1]: 390 nM

COCCNc1cc2ncc(C#N)c(Nc3cc(OC)c(Cl)cc3Cl)c2cc1OC
IC50 [1]: 1500 nM

CCOc1cc2c(Nc3cc(OC)c(Cl)cc3Cl)c(C#N)cnc2cc1OCCOC
IC50 [1]: 180 nM

COc1cc(Nc2c(C#N)cnc3cc(NCCCN4CCN(C)CC4)c(OC)cc23)c(Cl)cc1Cl
inhibition at 3 µM [2]: < 34% | concentration at 24 h [3]: 100 ng/mL | inhibition at 3 µM [4]: < 34% | IC50 [1]: 360 nM | inhibition in vivo at 150 mg/kg [5]: 63% | remaining at 5 h [6]: > 70% | inhibition at 3 µM [7]: < 34% | concentration at 4 h [8]: 790 ng/mL | solubility [9]: 32 µg/mL (≈ 60.4 µM) | Papp [10]: 10.7 ×10⁻⁶ cm/s | concentration at 8 h [11]: 520 ng/mL

COc1cc(Nc2c(C#N)cnc3cc(OCCCN4CCN(C)CC4)ccc23)c(Cl)cc1Cl
IC50 [1]: 710 nM

COCCOc1cc2ncc(C#N)c(Nc3cc(OC)c(Cl)cc3Cl)c2cc1OC
IC50 [1]: 190 nM
